Tests used:
Histamine H3 receptor = Histamine H3 receptor (Homo sapiens, UniProt Q9Y5N1); assay: GPCRScan assay: inhibition of H3; set-up: radioligand conc. used [nm] 0.5 – 1.0, parental cells HEK Flp-In
[1] = tested on: Tyrosine-protein kinase ABL1 (Homo sapiens), P00519 [Q252H]; conditions: Compound concentration 1000.0 nM
[2] = target: Tyrosine-protein kinase BTK (Homo sapiens) (UniProt Q06187); conditions: Compound concentration 1000.0 nM
[3] = tested on: Epidermal growth factor receptor (Homo sapiens), P00533 [UNDEFINED MUTATION]; conditions: Compound concentration 1000.0 nM
Sequence of Epidermal growth factor receptor (Homo sapiens), P00533 [UNDEFINED MUTATION] (P00533 whole entry, looked up, stated change not applied): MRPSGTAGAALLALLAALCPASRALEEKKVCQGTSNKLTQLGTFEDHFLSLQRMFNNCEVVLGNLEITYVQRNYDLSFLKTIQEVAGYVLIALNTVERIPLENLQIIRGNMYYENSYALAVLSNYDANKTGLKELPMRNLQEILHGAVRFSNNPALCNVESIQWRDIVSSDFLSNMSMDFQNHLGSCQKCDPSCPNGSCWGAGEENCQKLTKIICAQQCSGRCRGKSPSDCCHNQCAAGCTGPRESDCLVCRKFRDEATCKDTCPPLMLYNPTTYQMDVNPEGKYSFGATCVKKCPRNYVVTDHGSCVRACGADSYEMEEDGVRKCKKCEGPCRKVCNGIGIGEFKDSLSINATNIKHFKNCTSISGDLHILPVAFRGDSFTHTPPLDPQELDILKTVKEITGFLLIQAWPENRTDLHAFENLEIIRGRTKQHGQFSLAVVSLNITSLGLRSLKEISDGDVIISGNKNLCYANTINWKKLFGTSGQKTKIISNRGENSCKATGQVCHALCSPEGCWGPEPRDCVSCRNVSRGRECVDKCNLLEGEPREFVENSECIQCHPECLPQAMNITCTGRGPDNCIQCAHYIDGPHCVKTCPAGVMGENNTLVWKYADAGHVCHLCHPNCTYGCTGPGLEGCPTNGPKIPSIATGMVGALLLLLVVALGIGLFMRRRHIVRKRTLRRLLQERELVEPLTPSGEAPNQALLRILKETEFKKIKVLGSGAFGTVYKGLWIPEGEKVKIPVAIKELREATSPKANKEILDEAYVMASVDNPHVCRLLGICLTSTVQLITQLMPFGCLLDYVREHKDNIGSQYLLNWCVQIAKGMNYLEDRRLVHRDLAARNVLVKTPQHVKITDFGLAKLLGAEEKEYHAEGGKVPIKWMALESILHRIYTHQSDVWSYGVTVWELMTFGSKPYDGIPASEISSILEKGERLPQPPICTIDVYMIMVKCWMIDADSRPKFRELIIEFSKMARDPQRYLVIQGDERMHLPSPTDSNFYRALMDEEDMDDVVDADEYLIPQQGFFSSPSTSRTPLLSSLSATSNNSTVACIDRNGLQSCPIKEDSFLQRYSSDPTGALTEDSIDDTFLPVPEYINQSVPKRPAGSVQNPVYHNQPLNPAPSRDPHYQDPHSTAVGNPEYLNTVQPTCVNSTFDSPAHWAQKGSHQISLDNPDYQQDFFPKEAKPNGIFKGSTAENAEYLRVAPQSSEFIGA

[4] = tested on: Receptor-type tyrosine-protein kinase FLT3 (Homo sapiens), P36888 [D835Y]; conditions: Compound concentration 1000.0 nM
[5] = tested on: Receptor-type tyrosine-protein kinase FLT3 (Homo sapiens), P36888 [UNDEFINED MUTATION]; conditions: Compound concentration 1000.0 nM
[6] = target: Mitogen-activated protein kinase 9 (Homo sapiens) (UniProt P45984); conditions: Compound concentration 1000.0 nM
[7] = target: Mitogen-activated protein kinase kinase kinase 4 (Homo sapiens) (UniProt Q9Y6R4); conditions: Compound concentration 1000.0 nM
[8] = target: MAP/microtubule affinity-regulating kinase 3 (Homo sapiens) (UniProt P27448); conditions: Compound concentration 1000.0 nM
[9] = target: Macrophage-stimulating protein receptor (Homo sapiens) (UniProt Q04912); conditions: Compound concentration 1000.0 nM
[10] = tested on: Phosphatidylinositol 4,5-bisphosphate 3-kinase catalytic subunit alpha isoform (Homo sapiens), P42336 [H1047L]; conditions: Compound concentration 1000.0 nM
Sequence of Phosphatidylinositol 4,5-bisphosphate 3-kinase catalytic subunit alpha isoform (Homo sapiens), P42336 [H1047L] (P42336 whole entry H1047L, canonical isoform): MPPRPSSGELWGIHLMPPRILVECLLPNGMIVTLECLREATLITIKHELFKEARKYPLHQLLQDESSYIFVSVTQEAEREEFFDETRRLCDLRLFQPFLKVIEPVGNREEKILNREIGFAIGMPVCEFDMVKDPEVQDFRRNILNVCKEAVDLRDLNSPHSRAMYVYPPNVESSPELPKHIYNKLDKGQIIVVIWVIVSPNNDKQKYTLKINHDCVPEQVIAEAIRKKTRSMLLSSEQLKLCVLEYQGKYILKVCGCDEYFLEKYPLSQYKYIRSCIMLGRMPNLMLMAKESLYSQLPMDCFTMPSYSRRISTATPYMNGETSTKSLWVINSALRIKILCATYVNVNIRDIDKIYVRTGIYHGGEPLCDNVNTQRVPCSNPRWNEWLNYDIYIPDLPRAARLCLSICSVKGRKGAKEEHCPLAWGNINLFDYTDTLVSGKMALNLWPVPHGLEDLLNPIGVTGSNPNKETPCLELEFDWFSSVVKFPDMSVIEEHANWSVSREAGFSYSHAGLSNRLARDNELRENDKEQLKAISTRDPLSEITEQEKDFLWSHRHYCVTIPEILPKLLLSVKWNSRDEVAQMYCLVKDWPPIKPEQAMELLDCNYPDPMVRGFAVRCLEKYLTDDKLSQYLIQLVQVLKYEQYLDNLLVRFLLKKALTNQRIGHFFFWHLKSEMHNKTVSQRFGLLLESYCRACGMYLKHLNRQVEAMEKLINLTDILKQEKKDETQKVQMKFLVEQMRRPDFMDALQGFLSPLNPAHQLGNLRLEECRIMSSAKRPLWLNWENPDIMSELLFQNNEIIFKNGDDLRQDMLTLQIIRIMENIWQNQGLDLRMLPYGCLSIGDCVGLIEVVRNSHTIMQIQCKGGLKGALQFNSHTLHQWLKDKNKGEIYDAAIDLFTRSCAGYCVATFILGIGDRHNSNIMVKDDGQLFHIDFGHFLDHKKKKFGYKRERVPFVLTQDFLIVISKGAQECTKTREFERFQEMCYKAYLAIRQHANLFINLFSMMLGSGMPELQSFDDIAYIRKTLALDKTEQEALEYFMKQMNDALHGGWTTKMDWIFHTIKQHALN

[11] = target: Phosphatidylinositol 5-phosphate 4-kinase type-2 beta (Homo sapiens) (UniProt P78356); conditions: Compound concentration 1000.0 nM
[12] = target: Serine/threonine-protein kinase PRP4 homolog (Homo sapiens) (UniProt Q13523); conditions: Compound concentration 1000.0 nM
[13] = target: Ribosomal protein S6 kinase alpha-6 (Homo sapiens) (UniProt Q9UK32); conditions: Compound concentration 1000.0 nM
[14] = target: Serine/threonine-protein kinase SIK1 (Homo sapiens) (UniProt P57059); conditions: Compound concentration 1000.0 nM
Sequence of Serine/threonine-protein kinase SIK1 (Homo sapiens) (P57059 whole entry): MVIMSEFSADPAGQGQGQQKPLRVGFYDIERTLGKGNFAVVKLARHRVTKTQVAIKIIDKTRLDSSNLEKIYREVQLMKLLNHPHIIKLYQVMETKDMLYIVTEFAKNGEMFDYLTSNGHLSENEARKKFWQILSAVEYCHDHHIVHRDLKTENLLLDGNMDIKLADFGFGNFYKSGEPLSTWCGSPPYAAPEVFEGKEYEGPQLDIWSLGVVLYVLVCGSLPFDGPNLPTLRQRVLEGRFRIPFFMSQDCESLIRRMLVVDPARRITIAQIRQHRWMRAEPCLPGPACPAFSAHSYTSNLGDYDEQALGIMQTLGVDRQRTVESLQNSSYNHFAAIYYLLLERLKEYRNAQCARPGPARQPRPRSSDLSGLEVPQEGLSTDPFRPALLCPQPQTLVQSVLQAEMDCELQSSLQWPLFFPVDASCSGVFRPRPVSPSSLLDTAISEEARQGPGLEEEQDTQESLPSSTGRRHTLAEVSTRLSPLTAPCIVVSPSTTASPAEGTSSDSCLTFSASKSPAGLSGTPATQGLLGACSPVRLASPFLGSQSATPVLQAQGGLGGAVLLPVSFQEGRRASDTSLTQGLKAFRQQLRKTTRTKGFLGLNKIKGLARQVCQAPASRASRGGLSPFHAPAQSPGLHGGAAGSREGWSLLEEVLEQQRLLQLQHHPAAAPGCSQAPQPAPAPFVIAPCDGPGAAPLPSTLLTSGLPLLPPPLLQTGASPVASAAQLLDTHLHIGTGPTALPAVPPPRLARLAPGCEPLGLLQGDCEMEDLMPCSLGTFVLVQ

[15] = target: Serine/threonine-protein kinase tousled-like 1 (Homo sapiens) (UniProt Q9UKI8); conditions: Compound concentration 1000.0 nM
Sequence of Serine/threonine-protein kinase tousled-like 1 (Homo sapiens) (Q9UKI8 whole entry): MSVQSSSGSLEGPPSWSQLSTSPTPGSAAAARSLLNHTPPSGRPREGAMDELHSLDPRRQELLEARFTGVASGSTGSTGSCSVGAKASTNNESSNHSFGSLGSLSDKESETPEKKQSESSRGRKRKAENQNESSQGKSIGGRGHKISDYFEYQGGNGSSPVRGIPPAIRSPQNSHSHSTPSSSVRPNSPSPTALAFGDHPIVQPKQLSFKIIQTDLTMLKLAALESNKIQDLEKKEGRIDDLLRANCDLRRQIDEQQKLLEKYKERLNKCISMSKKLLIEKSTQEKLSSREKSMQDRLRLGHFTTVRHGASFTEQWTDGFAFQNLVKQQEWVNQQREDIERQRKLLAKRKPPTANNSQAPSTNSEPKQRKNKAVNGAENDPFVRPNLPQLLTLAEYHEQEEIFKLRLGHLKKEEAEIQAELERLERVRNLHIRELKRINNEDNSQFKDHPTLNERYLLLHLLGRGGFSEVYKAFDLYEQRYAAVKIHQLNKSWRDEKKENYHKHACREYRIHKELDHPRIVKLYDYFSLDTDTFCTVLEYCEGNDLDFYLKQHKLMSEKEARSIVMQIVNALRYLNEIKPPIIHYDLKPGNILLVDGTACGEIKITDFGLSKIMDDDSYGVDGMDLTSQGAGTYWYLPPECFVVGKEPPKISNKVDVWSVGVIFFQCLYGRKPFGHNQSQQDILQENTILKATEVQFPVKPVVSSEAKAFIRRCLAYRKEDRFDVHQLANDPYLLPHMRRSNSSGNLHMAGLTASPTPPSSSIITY

Sequence of Histamine H3 receptor (Q9Y5N1 whole entry): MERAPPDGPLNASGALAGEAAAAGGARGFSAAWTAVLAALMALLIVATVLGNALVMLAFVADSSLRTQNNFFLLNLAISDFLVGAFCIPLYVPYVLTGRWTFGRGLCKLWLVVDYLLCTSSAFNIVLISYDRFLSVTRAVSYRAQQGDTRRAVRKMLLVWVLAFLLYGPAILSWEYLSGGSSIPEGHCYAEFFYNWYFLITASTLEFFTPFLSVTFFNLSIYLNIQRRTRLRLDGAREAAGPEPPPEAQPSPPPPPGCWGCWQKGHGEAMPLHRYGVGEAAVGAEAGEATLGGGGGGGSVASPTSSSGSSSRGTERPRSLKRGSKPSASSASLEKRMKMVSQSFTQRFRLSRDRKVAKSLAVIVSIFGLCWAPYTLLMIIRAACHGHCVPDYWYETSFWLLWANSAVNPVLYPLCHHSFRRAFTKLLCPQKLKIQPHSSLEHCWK
Sequence of Tyrosine-protein kinase BTK (Homo sapiens) (Q06187 whole entry): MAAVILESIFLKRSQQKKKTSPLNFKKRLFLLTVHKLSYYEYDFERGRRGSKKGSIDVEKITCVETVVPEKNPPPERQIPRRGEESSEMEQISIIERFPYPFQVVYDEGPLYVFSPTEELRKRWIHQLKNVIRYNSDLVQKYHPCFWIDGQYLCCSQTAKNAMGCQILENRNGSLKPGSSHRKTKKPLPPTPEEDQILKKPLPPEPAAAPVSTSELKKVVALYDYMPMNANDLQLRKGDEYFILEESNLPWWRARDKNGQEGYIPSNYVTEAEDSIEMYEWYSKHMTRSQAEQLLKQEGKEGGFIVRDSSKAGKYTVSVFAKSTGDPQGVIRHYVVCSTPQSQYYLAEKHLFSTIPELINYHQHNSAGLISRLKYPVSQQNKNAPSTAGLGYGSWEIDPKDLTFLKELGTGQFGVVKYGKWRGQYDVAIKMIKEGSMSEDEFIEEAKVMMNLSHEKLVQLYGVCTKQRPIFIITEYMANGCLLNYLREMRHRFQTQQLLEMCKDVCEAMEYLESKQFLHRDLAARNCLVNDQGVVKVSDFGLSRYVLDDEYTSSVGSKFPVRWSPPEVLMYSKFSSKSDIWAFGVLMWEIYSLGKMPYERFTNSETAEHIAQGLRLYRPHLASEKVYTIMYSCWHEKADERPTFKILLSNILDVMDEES

With CC(=O)C1=C(C)N(c2cccc(C(F)(F)F)c2)C(=O)N[C@@H]1c1ccc(C#N)nc1 [BAY-678] the Ki (Histamine H3 receptor; read-out: Ki) was 3070 nM, the Ki (Histamine H3 receptor; read-out: pKi (converted)) was 2820 nM and the residual activity [1] was 100%. It also gave a residual activity [2] of 100%, a residual activity [3] of 100% and a residual activity [4] of 93.9%. It also gave a residual activity [5] of 87.4%, a residual activity [6] of 100% and a residual activity [7] of 100%. It also gave a residual activity [8] of 100%, a residual activity [9] of 81.1% and a residual activity [10] of 69%. For the same compound, the residual activity [11] was 52.8%, the residual activity [12] was 100% and the residual activity [13] was 100%. For the same compound, the residual activity [14] was 100% and the residual activity [15] was 85.3%.
